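Cultured in 96-well plates, cells were exposed to test compound for 48 hours across five concentrations. GI50: concentration for 50% inhibition of growth. TGI is the concentration that stops growth completely.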
Assays:
Test in all cases: growth of human tumour cells (NCI), 48 h
[1] = system: UO-31 renal
[2] = system: HCC-2998 colon
[3] = system: DU-145 prostate
[4] = system: NCI/ADR-RES ovarian
[5] = system: OVCAR-5 ovarian
[6] = system: HOP-92 NSCLC
[7] = system: IGROV1 ovarian
[8] = system: SW-620 colon
[9] = system: TK-10 renal
[10] = system: A549 NSCLC
[11] = system: T-47D breast
[12] = system: NCI-H23 lung
[13] = system: KM12 colon
[14] = system: COLO 205 colon
[15] = system: UACC-62 melanoma
[16] = system: ACHN renal
[17] = system: PC-3 prostate
[18] = system: LOX IMVI melanoma
[19] = system: OVCAR-3 ovarian
[20] = system: HS 578T breast
[21] = system: SNB-75 CNS
[22] = system: SK-MEL-28 melanoma
[23] = system: HCT-116 colon
[24] = system: NCI-H226 lung
[25] = system: M14 melanoma
[26] = system: SF-268 CNS
[27] = system: HL-60(TB) leukemia
[28] = system: SNB-19 CNS
[29] = system: SN12C renal
[30] = system: RXF 393 renal
[31] = system: HCT-15 colon
[32] = system: HT29 colon
[33] = system: MOLT-4 leukemia
[34] = system: SK-OV-3 ovarian
[35] = system: SK-MEL-5 melanoma
[36] = system: HOP-62 NSCLC
[37] = system: NCI-H522 lung
[38] = system: MCF7 breast
[39] = system: 786-0 renal
[40] = system: NCI-H460 lung
[41] = system: SF-539 CNS
[42] = system: CCRF-CEM leukemia
[43] = system: BT-549 breast
[44] = system: MDA-MB-435
[45] = system: OVCAR-4 ovarian
[46] = system: CAKI-1 renal
[47] = system: K-562 leukemia
[48] = system: RPMI-8226 leukemia
[49] = system: A498 renal
[50] = system: SK-MEL-2 melanoma
[51] = system: OVCAR-8 ovarian
[52] = system: MDA-MB-231 breast
[53] = system: SR leukemia
[54] = system: MALME-3M melanoma

For `CCOC(=O)C1=C(N)CCC1C` (stereo not drawn), the GI50 [1] was over 100 µM, the TGI [1] was over 100 µM and the GI50 [2] was over 100 µM. For the same molecule, the TGI [2] was over 100 µM, the GI50 [3] was over 100 µM and the TGI [3] was over 100 µM. It also gave a GI50 [4] of over 100 µM, a TGI [4] of over 100 µM and a GI50 [5] of over 100 µM. For the same molecule, the TGI [5] was over 100 µM, the GI50 [6] was 41.2 µM and the TGI [6] was over 100 µM. For the same molecule, the GI50 [7] was over 100 µM, the TGI [7] was over 100 µM and the GI50 [8] was over 100 µM. The TGI [8] was over 100 µM, the GI50 [9] was over 100 µM and the TGI [9] was over 100 µM. The GI50 [10] was over 100 µM, the TGI [10] was over 100 µM and the GI50 [11] was over 100 µM. For the same molecule, the TGI [11] was over 100 µM, the GI50 [12] was over 100 µM and the TGI [12] was over 100 µM. The GI50 [13] was over 100 µM, the TGI [13] was over 100 µM and the GI50 [14] was over 100 µM. The TGI [14] was over 100 µM, the GI50 [15] was over 100 µM and the TGI [15] was over 100 µM. It also gave a GI50 [16] of over 100 µM, a TGI [16] of over 100 µM and a GI50 [17] of over 100 µM. It also gave a TGI [17] of over 100 µM, a GI50 [18] of over 100 µM and a TGI [18] of over 100 µM. The GI50 [19] was over 100 µM, the TGI [19] was over 100 µM and the GI50 [20] was over 100 µM. For the same molecule, the TGI [20] was over 100 µM, the GI50 [21] was over 100 µM and the TGI [21] was over 100 µM. It also gave a GI50 [22] of over 100 µM, a TGI [22] of over 100 µM and a GI50 [23] of over 100 µM. The TGI [23] was over 100 µM, the GI50 [24] was over 100 µM and the TGI [24] was over 100 µM. The GI50 [25] was over 100 µM, the TGI [25] was over 100 µM and the GI50 [26] was over 100 µM. For the same molecule, the TGI [26] was over 100 µM, the GI50 [27] was 69.8 µM and the TGI [27] was over 100 µM. For the same molecule, the GI50 [28] was over 100 µM, the TGI [28] was over 100 µM and the GI50 [29] was over 100 µM. For the same molecule, the TGI [29] was over 100 µM, the GI50 [30] was over 100 µM and the TGI [30] was over 100 µM. It also gave a GI50 [31] of over 100 µM, a TGI [31] of over 100 µM and a GI50 [32] of over 100 µM. It also gave a TGI [32] of over 100 µM, a GI50 [33] of 22.7 µM and a TGI [33] of 65.5 µM. For the same molecule, the GI50 [34] was over 100 µM, the TGI [34] was over 100 µM and the GI50 [35] was over 100 µM. The TGI [35] was over 100 µM, the GI50 [36] was over 100 µM and the TGI [36] was over 100 µM. The GI50 [37] was over 100 µM, the TGI [37] was over 100 µM and the GI50 [38] was over 100 µM. It also gave a TGI [38] of over 100 µM, a GI50 [39] of over 100 µM and a TGI [39] of over 100 µM. For the same molecule, the GI50 [40] was over 100 µM, the TGI [40] was over 100 µM and the GI50 [41] was over 100 µM. It also gave a TGI [41] of over 100 µM, a GI50 [42] of over 100 µM and a TGI [42] of over 100 µM. The GI50 [43] was over 100 µM, the TGI [43] was over 100 µM and the GI50 [44] was over 100 µM. For the same molecule, the TGI [44] was over 100 µM, the GI50 [45] was over 100 µM and the TGI [45] was over 100 µM. For the same molecule, the GI50 [46] was over 100 µM, the TGI [46] was over 100 µM and the GI50 [47] was over 100 µM. It also gave a TGI [47] of over 100 µM, a GI50 [48] of over 100 µM and a TGI [48] of over 100 µM. It also gave a GI50 [49] of over 100 µM, a TGI [49] of over 100 µM and a GI50 [50] of over 100 µM. It also gave a TGI [50] of over 100 µM, a GI50 [51] of over 100 µM and a TGI [51] of over 100 µM. The GI50 [52] was over 100 µM, the TGI [52] was over 100 µM and the GI50 [53] was 8.35 µM. It also gave a TGI [53] of over 100 µM, a GI50 [54] of over 100 µM and a TGI [54] of over 100 µM.
